One assay has as its target T1, IKKε (Homo sapiens, UniProt Q14164).
T1 sequence (Q14164 1-716): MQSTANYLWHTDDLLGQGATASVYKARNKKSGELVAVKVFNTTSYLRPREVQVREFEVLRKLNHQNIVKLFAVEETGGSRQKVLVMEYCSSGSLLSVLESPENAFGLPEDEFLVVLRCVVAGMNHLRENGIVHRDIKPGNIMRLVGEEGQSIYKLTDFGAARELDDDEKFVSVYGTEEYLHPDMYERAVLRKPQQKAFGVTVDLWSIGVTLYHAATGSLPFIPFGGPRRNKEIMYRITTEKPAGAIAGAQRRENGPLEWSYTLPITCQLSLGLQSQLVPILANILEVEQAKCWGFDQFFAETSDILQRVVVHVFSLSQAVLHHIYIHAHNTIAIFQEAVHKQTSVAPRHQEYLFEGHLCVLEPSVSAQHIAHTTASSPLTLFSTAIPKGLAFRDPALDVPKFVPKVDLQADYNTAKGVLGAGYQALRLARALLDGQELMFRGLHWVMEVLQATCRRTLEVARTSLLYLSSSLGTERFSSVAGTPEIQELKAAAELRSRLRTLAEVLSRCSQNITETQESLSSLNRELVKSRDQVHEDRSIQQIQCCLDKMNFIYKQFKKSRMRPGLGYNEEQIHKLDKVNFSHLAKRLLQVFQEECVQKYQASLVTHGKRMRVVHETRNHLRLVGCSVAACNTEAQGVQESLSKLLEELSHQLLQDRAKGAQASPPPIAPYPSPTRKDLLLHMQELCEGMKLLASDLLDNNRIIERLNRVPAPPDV
Nature of the assay: IKKε biochemical assay. Particulars: 10 point 1:4 dose response, 30 uM top concentration, 90 min at 25° C., LabChip EZ Reader II; read-out: IKKε_IC50. The procedure, abridged:
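Compounds in 1% DMSO final were incubated with IKKε enzyme and substrate at 25° C. for 90 min, then stopped. Substrate and product peaks were resolved by LabChip EZ Reader II mobility-shift read-out. Staurosporine at 10 uM final served as the full-inhibition control.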

A further assay deals with T2, TBK1 (Homo sapiens, UniProt Q9UHD2).
T2 sequence (Q9UHD2 1-729): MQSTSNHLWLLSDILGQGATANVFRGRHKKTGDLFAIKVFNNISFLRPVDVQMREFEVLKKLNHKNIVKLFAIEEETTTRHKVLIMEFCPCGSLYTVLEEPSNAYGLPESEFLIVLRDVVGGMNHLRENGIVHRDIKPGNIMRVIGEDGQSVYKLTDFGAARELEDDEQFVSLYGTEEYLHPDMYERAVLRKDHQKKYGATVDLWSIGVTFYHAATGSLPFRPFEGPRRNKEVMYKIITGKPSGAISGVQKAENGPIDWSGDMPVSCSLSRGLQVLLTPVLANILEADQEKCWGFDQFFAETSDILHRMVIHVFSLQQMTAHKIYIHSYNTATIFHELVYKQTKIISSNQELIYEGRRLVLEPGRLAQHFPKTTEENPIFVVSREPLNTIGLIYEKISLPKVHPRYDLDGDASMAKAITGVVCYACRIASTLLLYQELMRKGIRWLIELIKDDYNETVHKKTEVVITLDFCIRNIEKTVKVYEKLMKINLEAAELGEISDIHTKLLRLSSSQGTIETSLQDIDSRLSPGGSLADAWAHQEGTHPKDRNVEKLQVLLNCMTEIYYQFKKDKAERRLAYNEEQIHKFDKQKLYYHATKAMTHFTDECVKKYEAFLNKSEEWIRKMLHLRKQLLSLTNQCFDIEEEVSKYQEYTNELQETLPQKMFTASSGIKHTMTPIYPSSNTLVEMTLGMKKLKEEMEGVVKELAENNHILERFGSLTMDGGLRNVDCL
As to the kind of experiment: TBK biochemical assay. The following applies: 10 point 1:4 dose response, 30 uM top concentration, 90 min at 25° C., LabChip EZ Reader II; read-out: TBK1_IC50. The procedure, abridged:
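Substrate and product were separated and quantified by microfluidic mobility-shift read (LabChip). 10 uM staurosporine served as the full-inhibition control, and the reference compound was tested from 1 uM final.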

Molecules are shown by their SMILES. Structures can show the parent of a compound that is named as a salt.

The record followed here is patent US20230019491A1, “PYRIMIDINE TBK/IKKe INHIBITOR COMPOUNDS AND USES THEREOF” (Merck Patent GmbH, priority 2017, published 2023).

Regarding `C[C@H](O)C(=O)N1CC[C@H](Oc2ccc(-c3ccnc(Nc4ccc(N5CCN(C6COC6)CC5)cc4)n3)cc2C#N)C(F)(F)C1` [Example 139, 2-[[(4S)-3,3-difluoro-1-[(2S)-2-hydroxypropanoyl]piperidin-4-yl]oxy]-5-[2-([4-[4-(oxetan-3-yl)piperazin-1-yl]phenyl]amino)pyrimidin-4-yl]benzonitrile], the IC50 at IKKε and on TBK1 was less than 100 nM each time.
As for `CCOc1cc(Nc2nccc(-c3ccc(OC4CCN(C(=O)[C@H](C)O)CC4(F)F)c(C#N)c3)n2)ccc1N1CCN(C2COC2)CC1` (stereo partly drawn) [Example 229, 2-([3,3-difluoro-1-[(2S)-2-hydroxypropanoyl]piperidin-4-yl]oxy)-5-[2-([3-ethoxy-4-[4-(oxetan-3-yl)piperazin-1-yl]phenyl]amino)pyrimidin-4-yl]benzonitrile], the IC50 on IKKε and on TBK1 was less than 100 nM each time.
For `COc1nc(Nc2nccc(-c3ccc(OC4CCN(C(=O)[C@@H](C)O)CC4(F)F)c(C#N)c3)n2)ccc1N1CCN(C)CC1C` (stereo in doubt) [Example 110, 2-[3,3-Difluoro-1-((R)-2-hydroxy-propionyl)-piperidin-4-yloxy]-5-{2-[5-((S)-2,4-dimethyl-piperazin-1-yl)-6-methoxy-pyridin-2-ylamino]-pyrimidin-4-yl}-benzonitrile], the IC50 at IKKε and at TBK1 was less than 100 nM in each case.
Consider `CN(C)C(=O)c1ccc(Nc2nccc(-c3ccc(OC4CCOCC4)c(C#N)n3)n2)nc1` [Example 27, 6-([4-[6-cyano-5-(oxan-4-yloxy)pyridin-2-yl]pyrimidin-2-yl]amino)-N,N-dimethylpyridine-3-carboxamide], for which the IC50 on IKKε and at TBK1 was 100 to 1000 nM throughout.
For `COc1nc(Nc2nccc(-c3ccc(OC4CCOCC4)c(C#N)c3)n2)ccc1C(=O)N[C@H]1[C@@H]2C[C@H]1CN(C)C2` [Example 19, 6-([4-[3-cyano-4-(oxan-4-yloxy)phenyl]pyrimidin-2-yl]amino)-2-methoxy-N-[(1R,5S,6R)-3-methyl-3-azabicyclo[3.1.1]heptan-6-yl]pyridine-3-carboxamide], the IC50 at IKKε and on TBK1 was less than 100 nM in each case.
With `COc1nc(Nc2nccc(-c3ccc(N4CC5(CCN(C(=O)[C@@H](O)CO)CC5)C4)c(C#N)c3)n2)ccc1N1CCN(C2COC2)CC1` [Example 315, 2-[7-((S)-2,3-Dihydroxy-propionyl)-2,7-diaza-spiro[3.5]non-2-yl]-5-{2-[6-methoxy-5-(4-oxetan-3-yl-piperazin-1-yl)-pyridin-2-ylamino]-pyrimidin-4-yl}-benzonitrile], the IC50 on IKKε and on TBK1 was less than 100 nM in each case.
Turning to `COc1nc(Nc2nccc(-c3ccc(OC4CCOCC4)c(C#N)c3)n2)ccc1C(=O)N1C2COCC1CC(O)C2` (stereo not drawn) [Example 17, 5-(2-[[5-([7-hydroxy-3-oxa-9-azabicyclo[3.3.1]nonan-9-yl]carbonyl)-6-methoxypyridin-2-yl]amino]pyrimidin-4-yl)-2-(oxan-4-yloxy)benzonitrile], the IC50 on IKKε and on TBK1 was less than 100 nM throughout.
In the case of `COc1nc(Nc2nccc(-c3ccc(OC4CCOCC4)c(C#N)c3)n2)ccc1N1C[C@@H](C)N(C2COC2)[C@@H](C)C1` [Example 38, 5-[2-([5-[cis-3,5-dimethyl-4-(oxetan-3-yl)piperazin-1-yl]-6-methoxypyridin-2-yl]amino)pyrimidin-4-yl]-2-(oxan-4-yloxy)benzonitrile], the IC50 at IKKε and on TBK1 was less than 100 nM in each case.
In the case of `COc1nc(Nc2nccc(-c3ccc(OC4CCNCC4C)c(C#N)c3)n2)ccc1N1CCN(C2COC2)CC1` (stereo not drawn) [Example 270, 5-{2-[6-Methoxy-5-(4-oxetan-3-yl-piperazin-1-yl)-pyridin-2-ylamino]-pyrimidin-4-yl}-2-(3-methyl-piperidin-4-yloxy)-benzonitrile], the IC50 at IKKε and on TBK1 was less than 100 nM in each case.
In the case of `COc1nc(Nc2nccc(-c3ccc(OC4CCN(C)C4)c(C#N)c3)n2)ccc1C(=O)N(C)C` (stereo not drawn) [Example 70, 6-[(4-[3-cyano-4-[(1-methylpyrrolidin-3-yl)oxy]phenyl]pyrimidin-2-yl)amino]-2-methoxy-N,N-dimethylpyridine-3-carboxamide hydrochloride], the IC50 at IKKε and on TBK1 was 100 to 1000 nM throughout.
On to `COc1nc(Nc2nccc(-c3ccc(OC4CCOC4)c(C#N)n3)n2)ccc1C(=O)N(C)C` (stereo not drawn) [Example 68, 6-([4-[6-cyano-5-(oxolan-3-yloxy)pyridin-2-yl]pyrimidin-2-yl]amino)-2-methoxy-N,N-dimethylpyridine-3-carboxamide], for which the IC50 on IKKε and on TBK1 was less than 100 nM throughout.
For the molecule `CCOc1nc(Nc2nccc(-c3ccc(OC4CCN(C(=O)[C@H](C)O)CC4(F)F)c(C#N)c3)n2)ccc1N1CCN(C2COC2)CC1` (stereo partly drawn) [Example 249, 2-([33-difluoro-1-[(2S)-2-hydroxypropanoyl]piperidin-4-yl]oxy)-5-[2-([6-ethoxy-5-[4-(oxetan-3-yl)piperazin-1-yl]pyridin-2-yl]amino)pyrimidin-4-yl]benzonitrile], the IC50 at IKKε and on TBK1 was less than 100 nM throughout.
`COc1nc(Nc2nccc(-c3ccc(O[C@H]4CCN(C(=O)c5cnn[nH]5)C[C@H]4F)c(C#N)c3)n2)ccc1N1CCN(C2COC2)CC1` [Example 115, 2-[[(3R,4S)-3-fluoro-1-[(1H-1,2,3-triazol-5-yl)carbonyl]piperidin-4-yl]oxy]-5-[2-([6-methoxy-5-[4-(oxetan-3-yl)piperazin-1-yl]pyridin-2-yl]amino)pyrimidin-4-yl]benzonitrile]: the IC50 on IKKε and on TBK1 was less than 100 nM each time.
Take `COc1nc(Nc2nccc(-c3ccc(OC4CCOCC4)c(C#N)c3)n2)ccc1C(=O)NC1C2COCC21` (stereo not drawn) [Example 8, 6-([4-[3-cyano-4-(oxan-4-yloxy)phenyl]pyrimidin-2-yl]amino)-2-methoxy-N-[3-oxabicyclo[3.1.0]hexan-6-yl]pyridine-3-carboxamide]: the IC50 at IKKε and on TBK1 was less than 100 nM in each case.
Take `COc1nc(Nc2nccc(-c3ccc(OC4CCN(C(=O)[C@H](C)O)CC4(F)F)c(C#N)c3)n2)ccc1N1CCOCC1` (stereo partly drawn) [Example 275, 2-([3,3-difluoro-1-[(2S)-2-hydroxypropanoyl]piperidin-4-yl]oxy)-5-(2-[[6-methoxy-5-(morpholin-4-yl)pyridin-2-yl]amino]pyrimidin-4-yl)benzonitrile]: the IC50 at IKKε and on TBK1 was less than 100 nM in each case.
On to `C[C@@H](O)C(=O)N1CCC(Oc2ccc(-c3ccnc(Nc4cccnc4)n3)cc2C#N)C(F)(F)C1` (stereo partly drawn) [Example 206, 2-([33-difluoro-1-[(2R)-2-hydroxypropanoyl]piperidin-4-yl]oxy)-5-[2-[(pyridin-3-yl)amino]pyrimidin-4-yl]benzonitrile], for which the IC50 at IKKε and at TBK1 was less than 100 nM each time.
As to `COc1nc(Nc2nccc(-c3ccc(OC4CCOCC4)c(C#N)c3)n2)ccc1C(=O)N1CC2CCC(C1)O2` [Example 10, 5-(2-[[6-methoxy-5-([8-oxa-3-azabicyclo[3.2.1]octan-3-yl]carbonyl)pyridin-2-yl]amino]pyrimidin-4-yl)-2-(oxan-4-yloxy)benzonitrile], the IC50 at IKKε and on TBK1 was less than 100 nM each time.
For the molecule `COc1nc(Nc2nccc(-c3ccc(OC4CCOCC4)c(C#N)c3)n2)ccc1C1CCN(C)C1` (stereo not drawn) [Example 42, 5-(2-[[6-methoxy-5-(1-methylpyrrolidin-3-yl)pyridin-2-yl]amino]pyrimidin-4-yl)-2-(oxan-4-yloxy)benzonitrile], the IC50 at IKKε and on TBK1 was less than 100 nM in each case.
